We go through 29 molecules from patent US6683103B2, “Sulfonamides for treatment of endothelin-mediated disorders” (Texas Biotechnology Corporation, priority 1997, dated 2004).

One assay addresses T1, human ETB receptor (Homo sapiens, UniProt P24530).
T1 construct: expressed in transfected cells; host or cells: COS7 cells
T1 sequence (P24530 27-442): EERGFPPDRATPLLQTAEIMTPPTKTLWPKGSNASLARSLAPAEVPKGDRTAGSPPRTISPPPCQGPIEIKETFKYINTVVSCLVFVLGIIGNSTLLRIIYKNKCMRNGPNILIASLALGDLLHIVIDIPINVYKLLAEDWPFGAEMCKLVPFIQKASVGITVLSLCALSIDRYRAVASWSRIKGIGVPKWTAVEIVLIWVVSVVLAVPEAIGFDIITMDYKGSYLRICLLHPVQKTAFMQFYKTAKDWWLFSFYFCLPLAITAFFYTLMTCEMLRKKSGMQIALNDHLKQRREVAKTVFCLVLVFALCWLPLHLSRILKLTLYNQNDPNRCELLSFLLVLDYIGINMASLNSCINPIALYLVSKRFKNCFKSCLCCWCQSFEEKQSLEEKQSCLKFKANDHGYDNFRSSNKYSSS
The experiment in a line: Binding Test #2: inhibition of 125I-ET-1 binding to ETB receptors (transfected COS7 cell membranes). In short, it runs like this: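 Competition with 125I-ET-1 for binding to membranes from COS7 cells transfected with human ETB receptor, used at 1 μg/50 μl binding buffer. Membranes prepared in HEPES pH 7.4 with aprotinin, including a DNase/MnCl2 step at 37 °C for 30 min.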

In the next assay the target is T2, human ETA receptors (Homo sapiens, UniProt P25101).
T2 construct: endogenous in cells; host or cells: TE 671 cells (ATCC HTB 139)
T2 sequence (P25101 21-427): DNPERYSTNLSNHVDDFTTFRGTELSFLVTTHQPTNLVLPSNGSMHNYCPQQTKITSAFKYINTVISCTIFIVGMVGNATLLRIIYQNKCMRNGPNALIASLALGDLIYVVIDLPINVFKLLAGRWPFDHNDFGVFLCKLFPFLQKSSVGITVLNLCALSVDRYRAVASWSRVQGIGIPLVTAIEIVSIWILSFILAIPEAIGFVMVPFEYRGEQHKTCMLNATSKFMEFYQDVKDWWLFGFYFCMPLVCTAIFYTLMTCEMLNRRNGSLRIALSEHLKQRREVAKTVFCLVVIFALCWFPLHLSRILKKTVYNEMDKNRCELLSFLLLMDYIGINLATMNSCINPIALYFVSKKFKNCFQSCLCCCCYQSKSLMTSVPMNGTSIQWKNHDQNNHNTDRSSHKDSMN
The experiment in a line: Binding Test #1: inhibition of 125I-ET-1 binding to ETA receptors (TE 671 cell membranes). The following applies: read-out: ETA. In short, it runs like this:
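Radioligand competition in triplicate: ¹²⁵I-endothelin-1 displaced by test compound (1 nM–100 μM final) from ETA-bearing TE 671 cell membranes in HEPES pH 7.4 binding buffer with NaCl, MgCl2 and bacitracin. Incubation 16–18 h at 4 °C (or at 24 °C); 80 nM ET-1 defines nonspecific binding; pellet radioactivity gives percent inhibition.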

[1] abbreviates: Table 1, incubation at 4° C., read-out: ETB.
The mark [2] stands for this setting: Table 1, † incubation at 24° C., read-out: ETB.
Setting [3] is: Table 1, † incubation at 24° C.
The mark [4] stands for this setting: Table 2, incubation at 4° C., read-out: ETB.
[5] abbreviates: Table 2, † incubation at 24° C., read-out: ETB.
Setting [6] is: Table 2, † incubation at 24° C.

Where two headings read alike, the source gives them in different places.

As to `Cc1noc(NS(=O)(=O)c2ccc(-c3cccc(N)c3)s2)c1Br` [N-(4-bromo-3-methyl-5-isoxazolyl)-5-(3-aminophenyl)thiophene-2-sulfonamide], the IC50 on human ETB receptor (setting [1]) was 1070 nM; at human ETB receptor (setting [2]), 2630 nM; at human ETA receptors (Table 1, incubation at 4° C.), 537 nM; on human ETA receptors (setting [3]), 1440 nM.
In the case of `COc1ccccc1-c1ccc(S(=O)(=O)Nc2onc(C)c2Br)s1` [N-(4-bromo-3-methyl-5-isoxazolyl)-5-(2-methoxyphenyl)thiophene-2-sulfonamide], the IC50 on human ETB receptor (setting [1]) turned out to be 1100 nM; on human ETA receptors (Table 1, incubation at 4° C.) it was 381 nM.
On to `CCc1ccc(-c2ccc(S(=O)(=O)Nc3onc(C)c3Br)s2)cc1` [N-(4-bromo-3-methyl-5-isoxazolyl)-5-(4-ethylphenyl)thiophene-2-sulfonamide], for which the IC50 amounted to 85.5 nM at human ETB receptor (setting [1]) and 3230 nM at human ETA receptors (Table 1, incubation at 4° C.).
For `Cc1noc(NS(=O)(=O)c2ccc(-c3ccc(C(C)C)cc3)s2)c1Br` [N-(4-bromo-3-methyl-5-isoxazolyl)-5-(4′-isopropylphenyl))thiophene-2-sulfonamide], in that order: 300 nM and 1600 nM.
For `Cc1noc(NS(=O)(=O)c2ccc(-c3ccccc3)cc2)c1Br` [N-(4-bromo-3-methyl-5-isoxazolyl)-4-biphenylsulfonamide], the IC50 is around 170 nM on human ETB receptor (setting [4]); 1230 nM on human ETB receptor (setting [5]); 3300 nM at human ETA receptors (Table 2, incubation at 4° C.); 49000 nM on human ETA receptors (setting [6]).
Regarding “N-(4-chloro-3-methyl-5-isoxazolyl)-2-[β-acetoxy-2-methyl-4,5-(methylenedioxy)styryl]thiophene-3-sulfonamide”, the IC50 on human ETB receptor (setting [2]) was found to be 3740 nM; at human ETA receptors (Table 1, incubation at 4° C.) it was 5.44 nM.
Consider `Cc1noc(NS(=O)(=O)c2ccc(-c3ccc(C(F)(F)F)cc3)s2)c1Br` [N-(4-bromo-3-methyl-5-isoxazolyl)-5-[4-(trifluoromethyl)phenyl]thiophene-2-sulfonamide], for which the IC50 on human ETB receptor (setting [1]) turned out to be 83.5 nM; on human ETB receptor (setting [2]), 282 nM; at human ETA receptors (Table 1, incubation at 4° C.), 6390 nM; at human ETA receptors (setting [3]), 6310 nM.
In the case of `Cc1ccc(CCc2cc(-c3ccc(C)cc3)sc2S(=O)(=O)Nc2onc(C)c2Br)cc1` [N-(4-bromo-3-methyl-5-isoxazolyl)-3-(4-methylphenethyl)-5-(4-tolyl)thiophene-2-sulfonamide], the figures for the IC50 on human ETB receptor (setting [2]) and on human ETA receptors (setting [3]) were 2090 nM and 6100 nM, respectively.
`Cc1noc(NS(=O)(=O)c2ccsc2C(=O)Nc2ccc(-c3ccccc3)cc2)c1Br` [N-(4-Bromo-3-methyl-5-isoxazolyl)-2-[N-(4-biphenyl)aminocarbonyl]thiophene-3-sulfonamide]: the IC50 was found to be 912 nM on human ETB receptor (setting [1]) and 37.6 nM at human ETA receptors (Table 1, incubation at 4° C.).
In the case of `Cc1noc(NS(=O)(=O)c2ccsc2C(=O)Oc2ccc3c(c2)OCO3)c1C` [N-(3,4-dimenthyl-5-isoxazolyl)-2-[3,4-(methylenedioxy)phenox] [N-(3,4-dimenthyl-5-isoxazolyl)-2-[3,4-(methylenedioxy)phenoxycarbonyl]thiophene-3-sulfonamide], the IC50 is above 50000 nM on human ETB receptor (setting [2]) and 6100 nM at human ETA receptors (setting [3]).
Consider `Cc1onc(NS(=O)(=O)c2cccs2)c1Br` [N-(4-bromo-5-methyl-3-isoxazolyl)thiophene-2-sulfonamide], for which the IC50 on human ETB receptor (setting [1]) is 27300 nM; at human ETA receptors (Table 1, incubation at 4° C.), 211 nM.
For the molecule `Cc1noc(NS(=O)(=O)c2cccn2-c2ccc(C(C)C)cc2)c1Br` [N-(4-Bromo-3-methyl-5-isoxazolyl)-1-(4′-isopropylphenyl)pyrrole-2-sulfonamide], the IC50 on human ETB receptor (setting [1]) was 166 nM; at human ETA receptors (Table 1, incubation at 4° C.), 11400 nM.
“N-(4-chloro-3-methyl-5-isoxazolyl)-2-[2-hyroxyproyl-4,5-(methylenedioxy)phenylaminocarbonyl]thiophene-3-sulfonamide”: the IC50 at human ETB receptor (setting [2]) came to 8300 nM; at human ETA receptors (setting [3]), 7.3 nM.
On to `Cc1noc(NS(=O)(=O)c2ccsc2C/C=C/c2ccc3c(c2)OCO3)c1Br` [N-(4-bromo-3-methyl-5-isoxazolyl)-2-[trans-(3,4-methylenedioxy)cinnamyl]thiophene-3-sulfonamide], for which the IC50 at human ETB receptor (setting [2]) stood at 1400 nM; on human ETA receptors (setting [3]), 140 nM.
For `COC(=O)c1ccc(-c2ccc(S(=O)(=O)Nc3onc(C)c3Br)s2)cc1` [N-(4-bromo-3-methyl-5-isoxazolyl)-5-(4-methyoxycarbonylphenyl)thiophene-2-sulfonamide] the same measures were 17000 nM and above 100000 nM.
As to `Cc1noc(NS(=O)(=O)c2ccc(-c3ccccc3)cc2)c1C` [N-(3,4-dimethyl-5-isoxazolyl)-4-biphenylsufonamide], the IC50 on human ETB receptor (setting [4]) worked out at 770 ± 320 nM; at human ETB receptor (setting [5]), 150 nM; at human ETA receptors (Table 2, incubation at 4° C.) it was 9900 ± 1400 nM; on human ETA receptors (setting [6]), 6300 nM.
`Cc1cc(NS(=O)(=O)c2ccc(-c3ccon3)s2)on1` [5-(3-isoxazolyl)-N-(3-methyl-5-isoxazolyl)-2-thiophenesulfonamide]: the IC50 on human ETB receptor (setting [1]) worked out at 6700 nM; at human ETA receptors (Table 1, incubation at 4° C.), 5600 nM.
Regarding “N-(4-bromo-3-methyl-5-isoxazolyl)-4′-methylphenyl-4-biphenylsulfonamide”, the IC50 on human ETB receptor (setting [4]) was 46 ± 44 nM; at human ETB receptor (setting [5]), 168 ± 3.2 nM; on human ETA receptors (Table 2, incubation at 4° C.) it was 14500 ± 9600 nM; on human ETA receptors (setting [6]) it was 22200 ± 3770 nM.
For the molecule `Cc1noc(NS(=O)(=O)c2cccc(-c3ccccc3)c2)c1C` [N-(3,4-dimethyl-5-isoxazolyl)-3-biphenylsulfonamide], the IC50 was 3480 nM on human ETB receptor (setting [4]); around 3480 nM at human ETB receptor (read-out: IC50 for ETB receptors); above 30 nM on human ETA receptors (Table 2, incubation at 4° C.).
Consider “N-(4-bromo-3-methyl-5-isoxazolyl)-3′-methoxyphenyl-4-biphenylsulfonamide”, for which the IC50 on human ETB receptor (setting [4]) turned out to be 660 ± 250 nM; at human ETB receptor (setting [5]), 2080 ± 230 nM; at human ETA receptors (Table 2, incubation at 4° C.), 4970 ± 3400 nM; on human ETA receptors (setting [6]), 163000 ± 7140 nM.
`Cc1noc(NS(=O)(=O)c2ccc(-c3ccc(C(=O)O)cc3)s2)c1Br` [N-(4-bromo-3-methyl-5-isoxazolyl)-5-(4-carboxyphenyl)thiophene-2-sulfonamide]: the figures for the IC50 at human ETB receptor (setting [2]) and on human ETA receptors (setting [3]) were 31000 nM and above 100000 nM, respectively.
Take `CCCCc1ccc(NC(=O)c2sccc2S(=O)(=O)Nc2onc(C)c2Br)cc1` [N-(4-bromo-3-methyl-5-isoxazolyl)-2-(4-butylphenyl)aminocarbonylthiophene-3-sulfonamide]: the IC50 on human ETB receptor (setting [1]) is 2840 nM; on human ETA receptors (Table 1, incubation at 4° C.), 44 nM.
As to “N-(4-chloro-3-methyl-5-isoxazolyl)-2-[β-(dimethylamino)-3,4-(methylenedioxy)phenethyl]thiophene-3-sulfonamide”, the results for the IC50 on human ETB receptor (setting [2]) and at human ETA receptors (setting [3]) were around 100000 nM and 20900 nM, respectively.
Consider `Cc1ccccc1-c1ccc(S(=O)(=O)Nc2onc(C)c2Br)s1` [N-(4-bromo-3-methyl-5-isoxazolyl)-5-(2-tolyl)thiophene-2-sulfonamide], for which the IC50 was determined as 313 nM at human ETB receptor (setting [1]) and 432 nM at human ETA receptors (Table 1, incubation at 4° C.).
Consider “N-(4-bromo-3-methyl-5-isoxazolyl)-2′-methoxyphenyl-4-biphenylsulfonamide”, for which the IC50 on human ETB receptor (setting [4]) worked out at 410 ± 140 nM; on human ETA receptors (Table 2, incubation at 4° C.), 3300 ± 3500 nM.
Regarding `Cc1noc(NS(=O)(=O)c2ccc(-c3ccccn3)s2)c1Br` [N-(4-Bromo-3-methyl-5-isoxazolyl)-5-(2-pyridyl)thiophene-2-sulfonamide], the IC50 on human ETB receptor (setting [1]) is 2700 nM; at human ETA receptors (Table 1, incubation at 4° C.) it was 3840 nM.
For `COc1cccc(NC(=O)c2sccc2S(=O)(=O)Nc2onc(C)c2Br)c1` [N-(4-Bromo-3-methyl-5-isoxazolyl)-2-[N-(3-methoxyphenyl)aminocarbonyl]thiophene-3-sulfonamide], in that order: 5860 nM and 3 nM.
Turning to `Cc1noc(NS(=O)(=O)c2ccsc2CCc2ccc3c(c2)OCO3)c1Br` [N-(4-bromo-3-methyl-5-isoxazolyl)-2-[(3,4-methylenedioxy)phenethyl]thiophene-3-sulfonamide], the figures for the IC50 on human ETB receptor (setting [2]) and on human ETA receptors (setting [3]) were 9200 nM and 210 nM, respectively.
In the case of `Cc1noc(NS(=O)(=O)c2cc(Cl)c(Cl)s2)c1Br` [N-(4-Bromo-3-methyl-5-isoxazolyl)-4,5-dichlorothiophene-2-sulfonamide], the IC50 on human ETB receptor (setting [1]) is around 4900 nM; at human ETA receptors (Table 1, incubation at 4° C.), around 450 nM.
